ChEMBL document CHEMBL6074670, “Discovery of NP3-253, a Potent Brain Penetrant Inhibitor of the NLRP3 Inflammasome” (J Med Chem, 2024)
Values belong to the compound of their own block, whether it stands above or below them. Activity calls are given as the source filed them. The rule behind the calls is not given here.

How the values were obtained:
[1] = biological target: NACHT, LRR and PYD domains-containing protein 3 (Mus musculus, UniProt Q8R4B8); experiment: Inhibition of NLRP3 inflammasome in C57BL/6J mouse whole blood assessed as reduction in LPS/ATP induced IL-1beta secretion preincubated for 60 mins followed by LPS addition for 4 hrs prior to ATP addition for 30 mins by HTRF method; type: tissue-based
Sequence of NACHT, LRR and PYD domains-containing protein 3 (Q8R4B8 whole entry, the tested form may be a part): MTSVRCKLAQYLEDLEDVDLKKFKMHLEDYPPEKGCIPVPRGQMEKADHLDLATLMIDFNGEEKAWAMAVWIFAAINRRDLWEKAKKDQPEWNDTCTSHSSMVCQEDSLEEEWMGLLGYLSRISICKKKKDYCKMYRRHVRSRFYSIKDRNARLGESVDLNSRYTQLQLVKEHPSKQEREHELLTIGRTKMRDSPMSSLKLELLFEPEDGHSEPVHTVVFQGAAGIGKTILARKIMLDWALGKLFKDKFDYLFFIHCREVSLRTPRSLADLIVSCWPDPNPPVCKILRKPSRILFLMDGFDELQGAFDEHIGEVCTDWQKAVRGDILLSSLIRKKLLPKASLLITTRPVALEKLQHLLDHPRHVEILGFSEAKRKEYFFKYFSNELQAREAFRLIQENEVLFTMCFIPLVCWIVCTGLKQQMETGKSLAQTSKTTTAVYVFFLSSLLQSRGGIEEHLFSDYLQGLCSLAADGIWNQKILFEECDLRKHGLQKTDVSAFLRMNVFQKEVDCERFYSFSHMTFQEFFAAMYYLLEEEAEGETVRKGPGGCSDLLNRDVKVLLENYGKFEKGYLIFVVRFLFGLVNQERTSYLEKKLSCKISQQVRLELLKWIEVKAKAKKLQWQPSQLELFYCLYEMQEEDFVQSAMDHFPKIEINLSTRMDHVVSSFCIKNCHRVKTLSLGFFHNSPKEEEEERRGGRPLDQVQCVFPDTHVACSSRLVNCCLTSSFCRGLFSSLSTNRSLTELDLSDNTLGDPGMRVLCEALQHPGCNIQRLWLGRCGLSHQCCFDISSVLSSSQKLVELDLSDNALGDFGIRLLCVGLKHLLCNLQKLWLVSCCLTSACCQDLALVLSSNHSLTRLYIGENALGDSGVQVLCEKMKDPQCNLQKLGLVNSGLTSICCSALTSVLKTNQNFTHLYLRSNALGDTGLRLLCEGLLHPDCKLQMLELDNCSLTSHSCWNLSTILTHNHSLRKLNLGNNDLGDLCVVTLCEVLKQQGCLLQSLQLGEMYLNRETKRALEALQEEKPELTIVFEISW

[2] = biological target: NACHT, LRR and PYD domains-containing protein 3 (Mus musculus) (UniProt Q8R4B8); experiment: In vivo inhibition of NLRP3 in LPS/ATP-induced C57BL/6JRi mouse peritonitis model assessed as reduction in IL-1beta level at 3 mg/kg, po preadministered with compound for 3 hrs followed by LPS stimulation for 2 hrs and measured 15 mins after ATP addition; type: functional, organism-based; settings: time 315.0 min
Sequence of NACHT, LRR and PYD domains-containing protein 3 (Mus musculus) (Q8R4B8 whole entry, the tested form may be a part): as above

[3] = biological target: NACHT, LRR and PYD domains-containing protein 3 (Mus musculus) (UniProt Q8R4B8); experiment: In vivo inhibition of NLRP3 in LPS/ATP-induced C57BL/6JRi mouse peritonitis model assessed as reduction in IL-1beta level at 2 mg/kg, po preadministered with compound for 3 hrs followed by LPS stimulation for 2 hrs and measured 15 mins after ATP addition; type: functional, organism-based; settings: time 315.0 min
[4] = biological target: NACHT, LRR and PYD domains-containing protein 3 (Mus musculus) (UniProt Q8R4B8); experiment: In vivo inhibition of NLRP3 in LPS/ATP-induced C57BL/6JRi mouse peritonitis model assessed as reduction in IL-1beta level at 0.3 mg/kg, po preadministered with compound for 3 hrs followed by LPS stimulation for 2 hrs and measured 15 mins after ATP addition; type: functional, organism-based; settings: time 315.0 min
[5] = biological target: NACHT, LRR and PYD domains-containing protein 3 (Mus musculus) (UniProt Q8R4B8); experiment: In vivo inhibition of NLRP3 in LPS/ATP-induced C57BL/6JRi mouse peritonitis model assessed as reduction in IL-1beta level at 0.05 mg/kg, po preadministered with compound for 3 hrs followed by LPS stimulation for 2 hrs and measured 15 mins after ATP addition; type: functional, organism-based; settings: time 315.0 min
[6] = biological target: NACHT, LRR and PYD domains-containing protein 3 (Mus musculus) (UniProt Q8R4B8); experiment: In vivo inhibition of NLRP3 in LPS/ATP-induced C57BL/6JRi mouse peritonitis model assessed as reduction in IL-1beta level at 0.0083 mg/kg, po preadministered with compound for 3 hrs followed by LPS stimulation for 2 hrs and measured 15 mins after ATP addition; type: functional, organism-based; settings: time 315.0 min
[7] = biological target: NACHT, LRR and PYD domains-containing protein 3 (Mus musculus) (UniProt Q8R4B8); experiment: In vivo inhibition of NLRP3 in LPS-induced C57BL/6JRi mouse neuroinflammation model assessed as reduction in blood IL-1beta level at 2 mg/kg, po pretreated with LPS for 23 hrs followed by compound addition for 1 hr prior to second dose of LPS addition and measured after 4 hrs; type: functional, organism-based; settings: time 5.0 hrs
[8] = biological target: NACHT, LRR and PYD domains-containing protein 3 (Mus musculus) (UniProt Q8R4B8); experiment: In vivo inhibition of NLRP3 in LPS-induced C57BL/6JRi mouse neuroinflammation model assessed as reduction in blood IL-1beta level at 0.2 mg/kg, po pretreated with LPS for 23 hrs followed by compound addition for 1 hr prior to second dose of LPS addition and measured after 4 hrs; type: functional, organism-based; settings: time 5.0 hrs
[9] = biological target: NACHT, LRR and PYD domains-containing protein 3 (Mus musculus) (UniProt Q8R4B8); experiment: In vivo inhibition of NLRP3 in LPS-induced C57BL/6JRi mouse neuroinflammation model assessed as reduction in blood IL-1beta level at 0.02 mg/kg, po pretreated with LPS for 23 hrs followed by compound addition for 1 hr prior to second dose of LPS addition and measured after 4 hrs; type: functional, organism-based; settings: time 5.0 hrs
[10] = biological target: NACHT, LRR and PYD domains-containing protein 3 (Mus musculus) (UniProt Q8R4B8); experiment: In vivo inhibition of NLRP3 in LPS-induced C57BL/6JRi mouse neuroinflammation model assessed as reduction in IL-1beta level in CSF at 2 mg/kg, po pretreated with LPS for 23 hrs followed by compound addition for 1 hr prior to second dose of LPS addition and measured after 4 hrs; type: functional, organism-based; settings: time 5.0 hrs
[11] = biological target: NACHT, LRR and PYD domains-containing protein 3 (Mus musculus) (UniProt Q8R4B8); experiment: In vivo inhibition of NLRP3 in LPS-induced C57BL/6JRi mouse neuroinflammation model assessed as reduction in IL-1beta level in CSF at 0.2 mg/kg, po pretreated with LPS for 23 hrs followed by compound addition for 1 hr prior to second dose of LPS addition and measured after 4 hrs; type: functional, organism-based; settings: time 5.0 hrs
[12] = biological target: NACHT, LRR and PYD domains-containing protein 3 (Mus musculus) (UniProt Q8R4B8); experiment: In vivo inhibition of NLRP3 in LPS-induced C57BL/6JRi mouse neuroinflammation model assessed as reduction in IL-1beta level in CSF at 0.02 mg/kg, po pretreated with LPS for 23 hrs followed by compound addition for 1 hr prior to second dose of LPS addition and measured after 4 hrs; type: functional, organism-based; settings: time 5.0 hrs
[13] = biological target: NLR family CARD domain-containing protein 4 (Homo sapiens) (UniProt Q9NPP4); experiment: Inhibition of NLRC4 activation overexpressed in human THP-1 cells assessed as reduction in IL-1beta secretion preincubated for 1 hr followed by PrgI protein addition and measured after 20 hrs; type: cell-based
Sequence of NLR family CARD domain-containing protein 4 (Homo sapiens) (Q9NPP4 whole entry, the tested form may be a part): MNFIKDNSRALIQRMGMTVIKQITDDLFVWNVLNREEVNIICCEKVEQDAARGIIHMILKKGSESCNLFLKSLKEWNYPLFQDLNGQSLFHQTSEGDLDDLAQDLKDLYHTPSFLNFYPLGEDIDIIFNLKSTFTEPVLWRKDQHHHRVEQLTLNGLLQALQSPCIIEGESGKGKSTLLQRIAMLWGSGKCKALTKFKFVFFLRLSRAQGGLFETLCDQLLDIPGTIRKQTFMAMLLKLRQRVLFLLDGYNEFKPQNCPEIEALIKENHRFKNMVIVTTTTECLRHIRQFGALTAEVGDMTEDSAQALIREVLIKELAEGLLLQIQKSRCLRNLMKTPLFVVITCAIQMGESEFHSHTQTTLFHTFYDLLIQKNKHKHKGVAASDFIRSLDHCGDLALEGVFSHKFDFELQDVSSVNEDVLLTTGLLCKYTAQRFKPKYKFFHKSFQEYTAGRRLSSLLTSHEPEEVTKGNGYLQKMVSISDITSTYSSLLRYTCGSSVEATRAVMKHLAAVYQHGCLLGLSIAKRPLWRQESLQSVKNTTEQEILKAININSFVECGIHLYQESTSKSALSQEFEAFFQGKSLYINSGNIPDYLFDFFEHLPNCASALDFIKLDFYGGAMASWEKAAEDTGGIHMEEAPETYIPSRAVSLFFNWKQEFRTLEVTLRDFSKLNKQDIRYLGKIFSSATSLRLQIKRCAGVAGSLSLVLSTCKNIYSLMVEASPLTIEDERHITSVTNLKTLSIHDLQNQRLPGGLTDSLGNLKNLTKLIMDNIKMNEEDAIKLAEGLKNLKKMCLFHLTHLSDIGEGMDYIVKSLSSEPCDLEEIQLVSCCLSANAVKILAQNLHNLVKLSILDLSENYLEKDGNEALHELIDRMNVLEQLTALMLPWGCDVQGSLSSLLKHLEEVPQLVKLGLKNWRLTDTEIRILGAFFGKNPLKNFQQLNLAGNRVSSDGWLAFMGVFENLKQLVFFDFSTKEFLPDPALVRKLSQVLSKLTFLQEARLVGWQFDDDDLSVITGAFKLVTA

[14] = biological target: T1, Pyrin (Homo sapiens, UniProt O15553); experiment: Inhibition of pyrin inflammasome activation in human U-937 cells assessed as IL-1beta secretion preincubated for 1 hr followed by BAA473 addition and measured after 4 hrs; type: cell-based
T1 sequence (O15553 whole entry): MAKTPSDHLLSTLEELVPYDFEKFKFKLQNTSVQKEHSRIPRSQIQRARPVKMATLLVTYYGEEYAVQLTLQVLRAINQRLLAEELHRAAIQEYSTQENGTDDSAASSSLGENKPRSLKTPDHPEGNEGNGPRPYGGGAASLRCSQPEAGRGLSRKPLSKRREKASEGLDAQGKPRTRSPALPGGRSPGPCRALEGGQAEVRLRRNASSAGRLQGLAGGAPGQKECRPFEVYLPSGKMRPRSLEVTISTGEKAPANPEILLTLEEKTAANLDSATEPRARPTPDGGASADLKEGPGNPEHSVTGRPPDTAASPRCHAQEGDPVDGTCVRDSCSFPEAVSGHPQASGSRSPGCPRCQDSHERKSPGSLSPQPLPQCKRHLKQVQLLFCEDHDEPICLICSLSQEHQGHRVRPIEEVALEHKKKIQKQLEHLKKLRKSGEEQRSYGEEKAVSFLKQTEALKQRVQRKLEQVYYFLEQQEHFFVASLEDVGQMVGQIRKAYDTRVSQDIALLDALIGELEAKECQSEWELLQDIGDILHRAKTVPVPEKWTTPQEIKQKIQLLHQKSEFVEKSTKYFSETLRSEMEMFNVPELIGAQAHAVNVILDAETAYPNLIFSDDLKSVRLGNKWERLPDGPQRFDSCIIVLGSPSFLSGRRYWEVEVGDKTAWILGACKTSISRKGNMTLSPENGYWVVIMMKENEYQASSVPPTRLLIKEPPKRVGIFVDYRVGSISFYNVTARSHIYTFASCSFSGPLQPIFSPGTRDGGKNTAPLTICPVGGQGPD

[15] = biological target: T2, Muscarinic acetylcholine receptor M2 (Homo sapiens) (UniProt P08172); experiment: Binding affinity to M2 muscarinic receptor (unknown origin)
T2 sequence (whole entry): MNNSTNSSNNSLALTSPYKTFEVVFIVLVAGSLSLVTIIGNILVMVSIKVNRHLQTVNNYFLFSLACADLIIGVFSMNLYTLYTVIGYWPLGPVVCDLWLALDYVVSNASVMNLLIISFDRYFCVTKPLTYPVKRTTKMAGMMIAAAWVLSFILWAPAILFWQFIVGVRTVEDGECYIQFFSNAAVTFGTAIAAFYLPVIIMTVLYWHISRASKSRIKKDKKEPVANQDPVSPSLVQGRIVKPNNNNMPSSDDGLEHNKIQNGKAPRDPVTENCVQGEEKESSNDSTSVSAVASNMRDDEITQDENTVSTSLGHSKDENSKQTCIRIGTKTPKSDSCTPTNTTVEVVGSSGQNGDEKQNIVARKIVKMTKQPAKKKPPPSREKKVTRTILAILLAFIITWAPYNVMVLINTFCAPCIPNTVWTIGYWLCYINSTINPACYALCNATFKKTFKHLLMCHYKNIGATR

[16] = biological target: Sodium-dependent serotonin transporter (Homo sapiens) (UniProt P31645); experiment: Binding affinity to 5HTT (unknown origin)
Sequence of Sodium-dependent serotonin transporter (Homo sapiens) (P31645 whole entry, looked up): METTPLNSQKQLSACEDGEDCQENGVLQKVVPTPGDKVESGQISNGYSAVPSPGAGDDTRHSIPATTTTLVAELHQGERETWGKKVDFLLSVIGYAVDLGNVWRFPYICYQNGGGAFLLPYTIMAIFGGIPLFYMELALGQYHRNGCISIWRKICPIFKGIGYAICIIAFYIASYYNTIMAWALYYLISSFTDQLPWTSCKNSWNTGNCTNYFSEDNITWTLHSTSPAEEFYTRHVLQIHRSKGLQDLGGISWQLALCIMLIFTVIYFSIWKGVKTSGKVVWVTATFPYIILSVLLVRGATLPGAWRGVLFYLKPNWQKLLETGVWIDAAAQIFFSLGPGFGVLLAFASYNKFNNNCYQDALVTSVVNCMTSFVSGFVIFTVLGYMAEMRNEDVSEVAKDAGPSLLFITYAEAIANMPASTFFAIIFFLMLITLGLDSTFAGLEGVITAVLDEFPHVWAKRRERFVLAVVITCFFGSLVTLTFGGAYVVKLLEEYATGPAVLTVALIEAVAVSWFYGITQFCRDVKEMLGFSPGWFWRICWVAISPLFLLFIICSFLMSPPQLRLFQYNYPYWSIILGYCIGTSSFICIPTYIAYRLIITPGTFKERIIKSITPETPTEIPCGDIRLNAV

IC50 [1]: 2.1 nM | inhibition [2]: 99.6%
SMILES: Cc1cc(C(F)(F)F)cc(O)c1-c1ccc(N[C@@H]2CCCN(CCO)C2)nn1

inhibition [2]: 99.5%
SMILES: Cc1cc(C(F)(F)F)cc(O)c1-c1ccc(N[C@@H]2CCCN(C)C2)nn1

IC50 [1]: 5.8 nM | inhibition [2]: 99%
SMILES: Cc1cc(C)c(-c2ccc(N[C@@H]3CCCN(C)C3)nn2)c(O)c1

IC50 [1]: 2.5 nM | inhibition [2]: 99.4% | inhibition [3]: 99.6% | inhibition [4]: 98.3% | inhibition [5]: 43.9% | inhibition [6]: 16% | inhibition [7]: 94.3% | inhibition [8]: 87.7% | inhibition [9]: 42.5% | inhibition [10]: 96.5% | inhibition [11]: 51.6% | inhibition [12]: -2% | inhibition [13]: inactive | IC50 [14]: > 33000 nM | Activity [15]: Active | Activity [16]: Active
SMILES: CCN1CCC[C@@H](Nc2ccc(-c3c(C)cc(C(F)(F)F)cc3O)nn2)C1
